Experimental findings from PubChem BioAssay (NCI) are described below.

Some test systems named below: KM20L2 colon; DMS 114 small cell lung; HOP-18 NSCLC; LXFL 529 NSCLC; RXF-631 renal.
What all share (experiment): inhibition of tumour cell growth, NCI panel, 48 h

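Dose response: 5 concentrations. Exposure: 48 h. Format: 96-well plates. Endpoint: linear interpolation; highest concentration if not reached. TGI: concentration producing complete growth inhibition.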

Regarding `O=C1c2ccccc2N2OC3(N4CCOCC4)CCCC3C12c1ccccc1` (centres undefined), the TGI in the test on KM20L2 colon, in the test on DMS 114 small cell lung, in the test on HOP-18 NSCLC and in the test on LXFL 529 NSCLC was above 100 µM each time.
With `COC(=O)[C@@]12OC[C@]34C([C@@H](O)C1O)[C@@]1(C)CC(=O)C(OC(=O)CC(C)C(F)(F)F)=C(C)C1C[C@H]3OC(=O)[C@H](O)[C@H]42` (some centres undefined), the TGI in the test on KM20L2 colon is above 62.5 µM; with DMS 114 small cell lung, 18.5 µM; with HOP-18 NSCLC it was 29.2 µM; with LXFL 529 NSCLC, above 62.5 µM.
On to `CN1CCOC(C(NC(=O)c2ccccc2)c2ccccc2)C1=O` (centres undefined), for which the TGI in the test with KM20L2 colon and in the test on HOP-18 NSCLC was above 100 µM in each case.
Take `CC(C)(CN1CCCCC1)C(=O)/C=C/c1ccc(Br)cc1`: the TGI is 6.85 µM with KM20L2 colon, 3.44 µM in the test on DMS 114 small cell lung, 6.83 µM in the test on HOP-18 NSCLC and 3.52 µM with LXFL 529 NSCLC.
In the case of `O=C(c1ccccc1)C1(Br)S(=O)(=O)OCCOS1(=O)=O`, the TGI in the test on KM20L2 colon, in the test with DMS 114 small cell lung and in the test with LXFL 529 NSCLC was above 100 µM each time.
`CCOC(=O)C1S(=O)(=O)OCCOS1(=O)=O`: the TGI with RXF-631 renal and with LXFL 529 NSCLC was above 100 µM in each case.
